SMILES strings stand for the structures. Read-outs that look alike come from different tables or passages of the source.

The test system of this assay is B-Raf mediated phosphorylation of MEK1. The experiment in a line: Cellular assay of B-Raf mediated phosphorylation of MEK1 in co-transfected 3T3 cells. The conditions noted are these: Mus musculus, NIH3T3, 2 h, two hours exposure, anti-phospho-MEK1/2 immunoassay. The format is cell-based. The protocol:
B-Raf mediated phosphorylation of MEK1 was measured in a cellular assay. Expression constructs for B-Raf and FLAG-tagged MEK1 (a B-raf substrate) were co-transfected in 3T3 cells and gene expression was induced using the GeneSwitch™ system for inducible mammalian expression (Invitrogen). Four hours following the induction of expression of B-Raf and MEK1, cells were exposed to the test compounds for two hours. The cells were then lysed, and then an immunoassay was performed using anti-phospho-MEK1/2 (Cell Signaling Technlogoies) to detect the percent inhibition of MEK1 phosphorylation.

[1] abbreviates: read-out: Potency (IC50, inhibition of MEK1 phosphorylation), 3T3 cells co-transfected with B-Raf and FLAG-tagged MEK1.
[2] abbreviates: 3T3 cells co-transfected with B-Raf and FLAG-tagged MEK1, read-out: Potency (IC50, inhibition of MEK1 phosphorylation).

As to `CCn1cc(-c2ccnc3[nH]ccc23)c(-c2cccc(NC(=O)NCc3ccccc3)c2)n1` [Example 9, N-{3-[1-Ethyl-4-(1H-pyrrolo[2,3-b]pyridin-4-yl)-1H-pyrazol-3-yl]phenyl}-N-(phenylmethyl)urea], the IC50 under setting [1] is less than 6 µM.
As to `CCn1cc(-c2ccnc3[nH]cc(Br)c23)c(-c2cccc(NC(=O)Nc3ccccc3)c2)n1` [Example 14, N-{3-[4-(3-Bromo-1H-pyrrolo[2,3-b]pyridin-4-yl)-1-ethyl-1H-pyrazol-3-yl]phenyl}-N-phenylurea], the IC50 under setting [2] was less than 6 µM.
`CCn1cc(-c2ccnc3[nH]ccc23)c(-c2cccc(NC(=O)Nc3c(F)cccc3F)c2)n1` [Example 6, N-(2,6-Difluorophenyl)-N-{3-[1-ethyl-4-(1H-pyrrolo[2,3-b]pyridin-4-yl)-1H-pyrazol-3-yl]phenyl}urea]: the IC50 under setting [2] is less than 6 µM.
Still for that read-out and setting: the figure for `CCn1cc(-c2ccnc3[nH]cc(Cl)c23)c(-c2cccc(NC(=O)Nc3ccccc3)c2)n1` [Example 13, N-{3-[4-(3-Chloro-1H-pyrrolo[2,3-b]pyridin-4-yl)-1-ethyl-1H-pyrazol-3-yl]phenyl}-N-phenylurea] is more than 6 µM.
`CCn1cc(-c2ccnc3[nH]ccc23)c(-c2cccc(NC(=O)NC3CCCCC3)c2)n1` [Example 8, N-Cyclohexyl-N-{3-[1-ethyl-4-(1H-pyrrolo[2,3-b]pyridin-4-yl)-1H-pyrazol-3-yl]phenyl}urea]: the IC50 under setting [1] was less than 6 µM.

The term IC50 denotes the midpoint of a concentration-inhibition curve.

The values are drawn from patent US20090018156A1, “Pyrrolo [2,3,B] Pyridine Derivatives Useful As RAF Kinase Inhibitors” (priority 2006, published 2009).
